Test system: 328373-195-R-J1-PDC complex spheroids, viability % test/control
Assay: Anticancer human tumor 328373-195-R-J1-PDC patient-derived head and neck squamous carcinoma cell line growth inhibition [CLK]
Conditions: for IC50: curve of first compound; for viability, T/C: stronger effect = lower value
Method in brief: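 Multi-cell-type spheroids combined patient-derived tumor cells with HUVEC endothelial cells and human mesenchymal stem cells. Paired agents were dosed in half-log steps down from about clinical Cmax, or from 10 microM where Cmax was unknown.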

[1] = second compound 0.0316 µM, first compound 0.0316 µM
[2] = second compound 0.0316 µM, first compound 0.1 µM
[3] = second compound 0.0316 µM, first compound 0.316 µM
[4] = second compound 0.0316 µM, first compound 1 µM
[5] = second compound 0.0316 µM, first compound 3.16 µM
[6] = second compound 0.0316 µM, first compound 10 µM
[7] = second compound 0.1 µM, first compound 0.0316 µM
[8] = second compound 0.1 µM, first compound 0.1 µM
[9] = second compound 0.1 µM, first compound 0.316 µM
[10] = second compound 0.1 µM, first compound 1 µM
[11] = second compound 0.1 µM, first compound 3.16 µM
[12] = second compound 0.1 µM, first compound 10 µM
[13] = second compound 0.316 µM, first compound 0.0316 µM
[14] = second compound 0.316 µM, first compound 0.1 µM
[15] = second compound 0.316 µM, first compound 0.316 µM
[16] = second compound 0.316 µM, first compound 1 µM
[17] = second compound 0.316 µM, first compound 3.16 µM
[18] = second compound 0.316 µM, first compound 10 µM
[19] = second compound 1 µM, first compound 0.0316 µM
[20] = second compound 1 µM, first compound 0.1 µM
[21] = second compound 1 µM, first compound 0.316 µM
[22] = second compound 1 µM, first compound 1 µM
[23] = second compound 1 µM, first compound 3.16 µM
[24] = second compound 1 µM, first compound 10 µM
[25] = second compound 3.16 µM, first compound 0.0316 µM
[26] = second compound 3.16 µM, first compound 0.1 µM
[27] = second compound 3.16 µM, first compound 0.316 µM
[28] = second compound 3.16 µM, first compound 1 µM
[29] = second compound 3.16 µM, first compound 3.16 µM
[30] = second compound 3.16 µM, first compound 10 µM
[31] = second compound 10 µM, first compound 0.0316 µM
[32] = second compound 10 µM, first compound 0.1 µM
[33] = second compound 10 µM, first compound 0.316 µM
[34] = second compound 10 µM, first compound 1 µM
[35] = second compound 10 µM, first compound 3.16 µM
[36] = second compound 10 µM, first compound 10 µM
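Further: spheroids exposed to the agents for 7 days.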

Compound: CC1(C)CCC(CN2CCN(c3ccc(C(=O)NS(=O)(=O)c4ccc(NCC5CCOCC5)c([N+](=O)[O-])c4)c(Oc4cnc5[nH]ccc5c4)c3)CC2)=C(c2ccc(Cl)cc2)C1 + CN1CCN(c2cc(C(=O)Nc3cc4cc(-c5cnn(C)c5)ccc4cn3)ccn2)CC1
- IC50 (second compound 0.0316 µM): 6500 nM
- IC50 (second compound 0.1 µM): > 10000 nM
- IC50 (second compound 0.316 µM): < 31.6 nM
- IC50 (second compound 1 µM): < 31.6 nM
- IC50 (second compound 3.16 µM): < 31.6 nM
- IC50 (second compound 10 µM): < 31.6 nM
- viability, T/C [1]: 98.7%
- viability, T/C [2]: 99.3%
- viability, T/C [3]: 93.3%
- viability, T/C [4]: 91.4%
- viability, T/C [5]: 83.8%
- viability, T/C [6]: 30.1%
- viability, T/C [7]: 88.8%
- viability, T/C [8]: 83.2%
- viability, T/C [9]: 86.4%
- viability, T/C [10]: 81.8%
- viability, T/C [11]: 78.2%
- viability, T/C [12]: 51.5%
- viability, T/C [13]: 28%
- viability, T/C [14]: 34.3%
- viability, T/C [15]: 33.9%
- viability, T/C [16]: 31.2%
- viability, T/C [17]: 33%
- viability, T/C [18]: 40.4%
- viability, T/C [19]: 0.22%
- viability, T/C [20]: 0.22%
- viability, T/C [21]: 0.21%
- viability, T/C [22]: 0.14%
- viability, T/C [23]: 2.75%
- viability, T/C [24]: 3.03%
- viability, T/C [25]: 0.09%
- viability, T/C [26]: 0.14%
- viability, T/C [27]: 1.25%
- viability, T/C [28]: 0.12%
- viability, T/C [29]: 0.11%
- viability, T/C [30]: 0.15%
- viability, T/C [31]: 0.11%
- viability, T/C [32]: 1.97%
- viability, T/C [33]: 3.19%
- viability, T/C [34]: 0.16%
- viability, T/C [35]: 1.92%
- viability, T/C [36]: 2.43%

Compound: CC1COCCN1c1cc(C2(S(C)(=N)=O)CC2)nc(-c2ccnc3[nH]ccc23)n1 (stereo unspecified) + CN1CCN(c2cc(C(=O)Nc3cc4cc(-c5cnn(C)c5)ccc4cn3)ccn2)CC1
- IC50 (second compound 0.0316 µM): 1660 nM
- IC50 (second compound 0.1 µM): 1150 nM
- IC50 (second compound 0.316 µM): < 31.6 nM
- IC50 (second compound 1 µM): < 31.6 nM
- IC50 (second compound 3.16 µM): < 31.6 nM
- IC50 (second compound 10 µM): < 31.6 nM
- viability, T/C [1]: 95.4%
- viability, T/C [2]: 96.6%
- viability, T/C [3]: 88.2%
- viability, T/C [4]: 69.3%
- viability, T/C [5]: 25.9%
- viability, T/C [6]: 8.66%
- viability, T/C [7]: 90.9%
- viability, T/C [8]: 86.8%
- viability, T/C [9]: 81.1%
- viability, T/C [10]: 55.2%
- viability, T/C [11]: 18%
- viability, T/C [12]: 9.2%
- viability, T/C [13]: 22.7%
- viability, T/C [14]: 37.2%
- viability, T/C [15]: 28.5%
- viability, T/C [16]: 14.7%
- viability, T/C [17]: 7.56%
- viability, T/C [18]: 7.95%
- viability, T/C [19]: 0.21%
- viability, T/C [20]: 0.24%
- viability, T/C [21]: 0.58%
- viability, T/C [22]: 0.22%
- viability, T/C [23]: 2.35%
- viability, T/C [24]: 2.29%
- viability, T/C [25]: 2.09%
- viability, T/C [26]: 0.12%
- viability, T/C [27]: 0.16%
- viability, T/C [28]: 0.14%
- viability, T/C [29]: 1.51%
- viability, T/C [30]: 3.51%
- viability, T/C [31]: 0.14%
- viability, T/C [32]: 1.61%
- viability, T/C [33]: 1.87%
- viability, T/C [34]: 1.76%
- viability, T/C [35]: 1.92%
- viability, T/C [36]: 2.57%

Compound: NC(=O)C(=Cn1cnc(-c2cc(C(F)(F)F)cc(C(F)(F)F)c2)n1)c1cncnc1 + CN1CCN(c2cc(C(=O)Nc3cc4cc(-c5cnn(C)c5)ccc4cn3)ccn2)CC1
- IC50 (second compound 0.0316 µM): 21.5 nM
- IC50 (second compound 0.1 µM): 12.8 nM
- IC50 (second compound 0.316 µM): < 9.49 nM
- IC50 (second compound 1 µM): < 9.49 nM
- IC50 (second compound 3.16 µM): < 9.49 nM
- IC50 (second compound 10 µM): < 9.49 nM
- viability, T/C (second compound 0.0316 µM, first compound 0.00949 µM): 78.8%
- viability, T/C (second compound 0.0316 µM, first compound 0.03 µM): 38.3%
- viability, T/C (second compound 0.0316 µM, first compound 0.0949 µM): 1.11%
- viability, T/C (second compound 0.0316 µM, first compound 0.3 µM): 0.32%
- viability, T/C (second compound 0.0316 µM, first compound 0.949 µM): 0.14%
- viability, T/C (second compound 0.0316 µM, first compound 3 µM): 1.38%
- viability, T/C (second compound 0.1 µM, first compound 0.00949 µM): 56.7%
- viability, T/C (second compound 0.1 µM, first compound 0.03 µM): 31.2%
- viability, T/C (second compound 0.1 µM, first compound 0.0949 µM): 0.33%
- viability, T/C (second compound 0.1 µM, first compound 0.3 µM): 0.56%
- viability, T/C (second compound 0.1 µM, first compound 0.949 µM): 0.08%
- viability, T/C (second compound 0.1 µM, first compound 3 µM): 3.54%
- viability, T/C (second compound 0.316 µM, first compound 0.00949 µM): 13.3%
- viability, T/C (second compound 0.316 µM, first compound 0.03 µM): 1.99%
- viability, T/C (second compound 0.316 µM, first compound 0.0949 µM): 1.27%
- viability, T/C (second compound 0.316 µM, first compound 0.3 µM): 0.99%
- viability, T/C (second compound 0.316 µM, first compound 0.949 µM): 0.07%
- viability, T/C (second compound 0.316 µM, first compound 3 µM): 1.88%
- viability, T/C (second compound 1 µM, first compound 0.00949 µM): 0.09%
- viability, T/C (second compound 1 µM, first compound 0.03 µM): 0.12%
- viability, T/C (second compound 1 µM, first compound 0.0949 µM): 2.09%
- viability, T/C (second compound 1 µM, first compound 0.3 µM): 1.38%
- viability, T/C (second compound 1 µM, first compound 0.949 µM): 2.09%
- viability, T/C (second compound 1 µM, first compound 3 µM): 0.22%
- viability, T/C (second compound 3.16 µM, first compound 0.00949 µM): 0.24%
- viability, T/C (second compound 3.16 µM, first compound 0.03 µM): 1.6%
- viability, T/C (second compound 3.16 µM, first compound 0.0949 µM): 0.1%
- viability, T/C (second compound 3.16 µM, first compound 0.3 µM): 1.06%
- viability, T/C (second compound 3.16 µM, first compound 0.949 µM): 0.12%
- viability, T/C (second compound 3.16 µM, first compound 3 µM): 1.99%
- viability, T/C (second compound 10 µM, first compound 0.00949 µM): 1.81%
- viability, T/C (second compound 10 µM, first compound 0.03 µM): 0.08%
- viability, T/C (second compound 10 µM, first compound 0.0949 µM): 0.93%
- viability, T/C (second compound 10 µM, first compound 0.3 µM): 0.14%
- viability, T/C (second compound 10 µM, first compound 0.949 µM): 1.29%
- viability, T/C (second compound 10 µM, first compound 3 µM): 0.16%
